These are literature values, as cited in patent US20110321180A1, “COMPOSITIONS AND METHODS TO GENERATE PILOSEBACEOUS UNITS” (University of Southern California, priority 2008, published 2011).

The conditions of data set [1]: DMSO.
The conditions of data set [2]: in published reports.

On to `c1cc(-c2cnn3cc(-c4ccc(OCCN5CCCCC5)cc4)cnc23)ccn1` [Dorsomorphin], for which the solubility entry in data set [1] is given as “soluble in DMSO”. For the same molecule, the toxicity result in data set [2] is “low toxicity”.

B1: noggin: BMP antagonist protein, UniProt: Q13253 (protein, UniProt Q13253 28-232, looked up)
Noggin: QHYLHIRPAPSDNLPLVDLIEHPDPIFDPKEKDLNETLLRSLLGGHYDPGFMATSPPEDRPGGGGGAAGGAEDLAELDQLLRQRPSGAMPSEIKGLEFSEGLAQGKKQRLSKKLRRKLQMWLWSQTFCPVLYAWNDLGSRFWPRYVKVGSCFSKRSCSVPEGMVCKPSKSVHLTVLRWRCQRRGGQRCGWIPIQYPIISECKCSC
Regarding B1, the “size of hair germs” value with hair germs is “makes hair germs bigger”.
